Measurements reported in patent US20110046185A1, “Arylchalcogenoarylalkyl-substituted imidazolidine-2,4-diones, process for preparation thereof, medicaments comprising these compounds and use thereof” (SANOFI-AVENTIS, priority 2008, published 2011).
pIC50, pKi: −log10 of the molar value. Like-named read-outs stand apart in the source and are kept apart here.

Legend:
hCB1R [1] = molecular target: T1, hCB1R (Homo sapiens, UniProt P21554); experiment: In vitro functional FLIPR assay with recombinant HEK293 cells, cannabinoid 1 receptor; assay type: cell-based; set-up: expressed in transfected cells; host or cells: HEK293; details: recombinant HEK293 cells expressing CB1 and Galpha16; Ca2+ change vs reference agonist
T1 sequence (P21554 whole entry): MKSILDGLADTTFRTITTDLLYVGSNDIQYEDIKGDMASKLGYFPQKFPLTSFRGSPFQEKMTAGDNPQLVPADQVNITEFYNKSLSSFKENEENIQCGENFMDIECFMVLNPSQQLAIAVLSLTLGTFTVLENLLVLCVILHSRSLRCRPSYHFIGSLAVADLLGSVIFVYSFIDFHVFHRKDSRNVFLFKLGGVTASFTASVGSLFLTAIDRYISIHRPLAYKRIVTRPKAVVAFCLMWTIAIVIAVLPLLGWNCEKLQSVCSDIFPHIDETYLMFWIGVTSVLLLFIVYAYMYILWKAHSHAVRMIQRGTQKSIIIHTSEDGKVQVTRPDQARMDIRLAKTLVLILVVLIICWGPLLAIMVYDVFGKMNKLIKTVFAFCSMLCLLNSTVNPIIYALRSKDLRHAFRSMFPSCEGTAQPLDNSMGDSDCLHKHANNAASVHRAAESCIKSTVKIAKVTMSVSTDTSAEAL
Description: (§1) Function-testing assays were performed by means of the FLIPR technique (“Fluorometric Imaging Plate Reader”, Molecular Devices Corp.).
(§2) To this end, ligand-induced changes in the intracellular concentration of Ca^2+ in recombinant HEK293 cells, which expressed both a cannabinoid receptor (CB1 or CB2) and G-protein Galpha16, were determined. For the studies, cells were sown into 96-well microtiter plates (60 000 cells/well) and left to grow overnight. The medium was removed and the cells were incubated in buffer which contained the fluorescent dye Fluo-4. After this loading with dye, the cells were washed, test substance was added dissolved in buffer, the mixture was incubated for 20 minutes, a known cannabinoid receptor agonist as a reference agonist was added in buffer and, finally, the changes in the intracellular Ca^2+ concentration were measured in the FLIPR unit.
(§3) Results were presented as the percentage change relative to the control (0%: analogous experiment without test substance and without reference agonist, i.e. only with buffer; 100%: analogous experiment without test substance, but with reference agonist in excess), and used to calculate dose/action curves, and IC50 values were determined.

hCB1R [2] = molecular target: T1, hCB1R; experiment: Binding to the CB1 receptor ([3H]-SR141716A displacement, CHO-K1/cannabinoid CB1 protein); set-up: expressed in transfected cells
Description: Test compounds: The compounds (3 μl, 10 mM, 100% DMSO), pipetted into 96-well PP microtiter plates, were diluted with 27 μl of 100% DMSO (dimethyl sulfoxide). Proceeding from this solution, further 3-fold dilution steps were undertaken by transferring 10 μl in each case to a new PP microtiter plate and adding a further 20 μl of 100% DMSO. In each case 6 μl of these solutions were transferred into new 96-well PP microtiter plates and made up with 144 μl of assay buffer. The end concentrations ranged from 10 μM to 0.005 μM.
Negative control: AM 251, dissolved in assay buffer with 1% DMSO, was added to the dilution series in the microtiter plates as a control. The end concentration was 1 μM.
Blank control: assay buffer with 1% DMSO was added to the dilution series of the microtiter plates as a blank control.
The values were calculated using the corrected raw data.
The values reported were obtained as average values of a double determination. The IC50 values were calculated from the measurements with the program Xlfit, formula 205. Ki values were obtained from the IC50 and Kd values utilizing the Cheng-Prusoff equation: […]
Literature: Cheng, Y.-C., and Prusoff, W. H. (1973) Biochem. Pharmacol 22, 3099-3108 Results: Ki values of example compounds;

hCB2R = molecular target: T2, hCB2R (Homo sapiens, UniProt P34972); experiment: In vitro functional FLIPR assay with recombinant HEK293 cells, cannabinoid 2 receptor; assay type: cell-based; details: recombinant HEK293 cells expressing CB2 and Galpha16; Ca2+ change vs reference agonist
T2 construct: expressed in transfected cells; host or cells: HEK293
T2 sequence (P34972 whole entry): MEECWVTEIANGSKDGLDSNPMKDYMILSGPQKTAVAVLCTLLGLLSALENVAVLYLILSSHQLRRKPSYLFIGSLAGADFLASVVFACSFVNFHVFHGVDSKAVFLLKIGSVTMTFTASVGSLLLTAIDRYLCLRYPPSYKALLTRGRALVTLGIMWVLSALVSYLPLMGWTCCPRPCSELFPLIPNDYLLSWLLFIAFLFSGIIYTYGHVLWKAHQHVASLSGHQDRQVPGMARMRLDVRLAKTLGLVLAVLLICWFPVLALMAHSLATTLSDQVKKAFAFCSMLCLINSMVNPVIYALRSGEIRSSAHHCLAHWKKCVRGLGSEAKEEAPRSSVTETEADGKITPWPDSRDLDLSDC
Description: as §1, §2, §3

[3] = [3H]-SR141716A 0.5 nM, Ki from IC50 by Cheng-Prusoff, average of double determination, read-out: hCB1R, binding Ki

Row | pKi (hCB1R [2]; [3]) | Compound | pIC50 (hCB1R [1]) | pIC50 (hCB2R) | pKi (hCB1R [2])
1 | 8.70 | CC1(C)C(=O)N(c2ccnc(Cl)c2)C(=O)N1Cc1ccccc1Oc1ccccc1 [Example 82] | 7.00 | < 5.00 | –
2 | – | CC1(C)C(=O)N(c2ccc(C#N)c(C(F)(F)F)c2)C(=O)N1Cc1ccccc1Sc1ccc(Cl)cc1 [Example 105, 4-{3-[2-(4-Chlorophenylsulfanyl)benzyl]-4,4-dimethyl-2,5-dioxoimidazolidin-1-yl}-2-trifluoromethylbenzonitrile] | – | < 5.00 | 7.36
3 | 6.54 | CC1(C)C(=O)N(c2cccc(SC(F)(F)F)c2)C(=O)N1Cc1ccccc1Oc1ccccc1 [Example 14] | – | – | –
4 | 6.55 | CC1(C)C(=O)N(c2cc(C(F)(F)F)ccc2F)C(=O)N1Cc1ccccc1Oc1ccccc1 [Example 12] | – | – | –
5 | – | CC1(C)C(=O)N(c2ccc(C#N)c(C(F)(F)F)c2)C(=O)N1Cc1ccccc1Oc1ccc(C(N)=O)cc1 [Example 98, 4-{2-[3-(4-Cyano-3-trifluoromethylphenyl)-5,5-dimethyl-2,4-dioxo-imidazolidin-1-ylmethyl]phenoxy}benzamide] | 6.29 | < 5.00 | –
6 | – | COC(=O)c1ccc(Oc2ccccc2CN2C(=O)N(c3ccc(C#N)c(C(F)(F)F)c3)C(=O)C2(C)C)cc1 [Example 96] | 6.82 | – | 7.66
7 | 6.51 | CC1(C)C(=O)N(c2ccc(C#N)nc2)C(=O)N1Cc1ccccc1Oc1ccccc1 [Example 86] | – | – | –
8 | 7.62 | CC1(C)C(=O)N(c2ccnc(C(F)(F)F)c2)C(=O)N1Cc1ccccc1Oc1ccccc1 [Example 83] | – | – | –

Row | Compound | pKi (hCB1R [2]; [3]) | pIC50 (hCB1R [1]) | pIC50 (hCB2R) | pKi (hCB1R [2])
9 | CC1(C)C(=O)N(c2cccc(C(F)(F)F)c2)C(=O)N1Cc1ccccc1Oc1ccccc1 [Example 8] | 6.60 | – | – | –
10 | CC1(C)C(=O)N(c2ccc(C#N)c(C(F)(F)F)c2)C(=O)N1Cc1ccccc1Oc1ccc(C(=O)O)cc1 [Example 97, 4-{2-[3-(4-Cyano-3-trifluoromethylphenyl)-5,5-dimethyl-2,4-dioxo-imidazolidin-1-ylmethyl]phenoxy}benzoic acid] | 6.27 | – | < 5.00 | –
11 | CC1(C)C(=O)N(c2ccc(C#N)c(C(F)(F)F)c2)C(=O)N1Cc1ccccc1[S+]([O-])c1ccc(Cl)cc1 (centres unmarked) [Example 107, 4-{3-[2-(4-Chlorobenzenesulfinyl)benzyl]-4,4-dimethyl-2,5-dioxoimidazolidin-1-yl}-2-trifluoromethylbenzonitrile] | 6.63 | – | – | –
